# Experimental data as given in US11512085B2, “Heteroaryl compound having drug activity” (SHANGHAI DUDE MEDICAL TECHNOLOGY CO., LTD, priority 2017, dated 2022).
# Experiments:
# SU-DHL-6 = assay: In vitro tumor cell proliferation (CellTiter-Glo), SU-DHL-6; assay type: cell-based; conditions: Homo sapiens, SU-DHL-6, 72 h; read-out: Growth IC50
# Experimental: (§1) Biological Embodiment 8: Study on Effects of Active Compounds for Inhibiting In Vitro Tumor Cell Proliferation
# (§2) Promega CellTiter-Glo cell activity detection kit by luminescence (Promega-G7573).
# (§3) Tumor cell lines were cultured in a 5% of CO2 incubator at 37° C. according to respective culture conditions; and periodic passage was performed, and cells positioned in a logarithmic phase were taken for planking.
# (§4) 3) 90 μL of cell suspension was added into each well of the culture plate, and a culture solution containing no cell was added into blank control;
# (§5) 4) the culture plate was cultured overnight in the 5% of CO2 incubator having relative humidity of 100% at 37° C.
# (§6) Preparation of a 400× compound storage plate: the compound was diluted from the maximum concentration gradient to the lowest concentration with DMSO. […]
# (§7) The following steps were performed according to the specification of the Promega CellTiter-Glo cell activity detection kit by luminescence (Promega-G7573). […]
# (§8) 9) the luminescence signal was detected on the 2104 EnVision plate reader.
# Btk = Btk (Homo sapiens, UniProt Q06187); assay: Determination of Btk enzyme inhibitory activity; assay type: biochemical; conditions: 2 nM BTK
# Experimental: Determination of Btk Enzyme Inhibitory Activity
# Buffer solution: 50 mM Hepes pH 7.0, 0.1 mM Orthovanadate, 5 mM MgCl2, 0.01% of BSA;
# 1 mM TK-peptide, […], 50 nM SEB;
# Pre-incubation for 15 minutes;
# Reaction at 23° C. for 90 minutes;
# Color Development Reaction:
# Developing buffer solution: 50 mM Hepes pH8.0, 0.8 M KF, 20 mM EDTA, 0.01% BSA;
# Reaction at 23° C. for 60 minutes;
# [1] = Pharmacokinetic study, single intravenous and oral dose, beagle dogs; assay type: in vivo; conditions: male, blood; for AUC(0-t) / Cmax / Tmax / half-life: Dog; for half-life: read-out: T½ (converted)
# Experimental: (§9) Biological Embodiment 7: Pharmacokinetic Study of Performing Respective Single Intravenous and Oral Dose Delivery with Test Samples on SD Rats and Beagle Dogs
# 6 male beagle dogs were selected, grouped and administered according to an experimental design table; 3 animals in the first group were intravenously administered once on the day of administration, wherein the administration dosage was 2 mg/kg, and the administration volume was 2.5 mL/kg; 3 animals in the second group were orally intragastrically administered once on the day of administration, wherein the administration dosage was 30 mg/kg, and the administration volume was 5 mL/kg.
# (§10) All the animals were subjected to cage edge observation twice every day so as to determine whether the animals got ill or had injuries or death and other situations and whether supply of foods and water was sufficient. In the test process, all administered animals were subjected to detailed clinical observation before administration and at blood collection points.
# Before administration (0 h) and within 0.083 h, 0.25 h, 0.5 h, 1 h, 2 h, 4 h, 6 h, 8 h and 24 h after administration, blood samples were collected from femoral veins at 10 time points so as to be used for blood concentration test. Experimental design table
# SU-DHL-4 = assay: In vitro tumor cell proliferation (CellTiter-Glo), SU-DHL-4; assay type: cell-based; conditions: Homo sapiens, SU-DHL-4, 72 h; read-out: Growth IC50
# Experimental: as §1, §2, §3, §4, §5, §6, §7, §8
# T cells = assay: T cell activation (CD3/CD28 dynabeads, CD69 staining); assay type: cell-based, Human; conditions: concentration of 10 uM
# Experimental: Biological Embodiment 3: Influences of In-Vitro Test Compounds on PBMC/B/T Cell Activation
# 4.3 Isolation of B Cells and T Cells
# Cell Isolation Programs Shall Refer to […] Kits
# 4.4.3 Activation of T Cells
# The co-culture system is as follows:
# Antibody Staining and Data Analysis
# Antibody staining was performed within 24 hours […] according to a standard method.
# 4.5.2 Activation of T Cells
# FITC Mouse Anti-Human CD4
# PerCP-Cy™5.5 Mouse Anti-Human CD8
# LIVE/DEAD Fixable Violet Dead Cell Stain Kit
# OCI-LY19 = assay: In vitro tumor cell proliferation (CellTiter-Glo), OCI-LY19; assay type: cell-based; conditions: Homo sapiens, OCI-LY19, 72 h; read-out: Growth IC50
# Experimental: as §1, §2, §3, §4, §5, §6, §7, §8
# DB = assay: In vitro tumor cell proliferation (CellTiter-Glo), DB; assay type: cell-based; conditions: Homo sapiens, 72 h, read-out: Growth IC50
# Experimental: as §1, §2, §3, §4, §5, §6, §7, §8
# Raji = assay: In vitro tumor cell proliferation (CellTiter-Glo), Raji; assay type: cell-based; conditions: Homo sapiens, 72 h, read-out: Growth IC50
# Experimental: as §1, §2, §3, §4, §5, §6, §7, §8
# TMD8 = assay: In vitro tumor cell proliferation (CellTiter-Glo), TMD8; assay type: cell-based; conditions: Homo sapiens, TMD8, 72 h; read-out: Growth IC50
# Experimental: as §1, §2, §3, §4, §5, §6, §7, §8
# DOHH-2 = assay: In vitro tumor cell proliferation (CellTiter-Glo), DOHH-2; assay type: cell-based; conditions: Homo sapiens, DOHH-2, 72 h; read-out: Growth IC50
# Experimental: as §1, §2, §3, §4, §5, §6, §7, §8
# OCI-LY10 = assay: In vitro tumor cell proliferation (CellTiter-Glo), OCI-LY10; assay type: cell-based; conditions: Homo sapiens, OCI-Ly10, 72 h; read-out: Growth IC50
# Experimental: as §1, §2, §3, §4, §5, §6, §7, §8
# [2] = Pharmacokinetic study, single intravenous and oral dose, SD rats; assay type: in vivo; conditions: male, blood; for AUC(0-t) / Cmax / Tmax / half-life: Rat; for half-life: read-out: T½ (converted)
# Experimental: as §9
# 6 male SD rats were selected, and grouped and administered according to an experimental design table; 3 animals in the first group were intravenously administered once on the day of administration, wherein the administration dosage was 2 mg/kg, and the administration volume was 5 mL/kg; 3 animals in the second group were orally intragastrically administered once on the day of administration, wherein the administration dosage was 10 mg/kg, and the administration volume was 10 mL/kg.
# as §10
# Before administration (0 h) and within 0.083 h, 0.25 h, 0.5 h, 1 h, 2 h, 4 h, 6 h, 8 h and 24 h after administration, blood samples were collected from femoral veins at 10 time points so as to be used for blood concentration test.
# Btk, sequence (Q06187 whole entry): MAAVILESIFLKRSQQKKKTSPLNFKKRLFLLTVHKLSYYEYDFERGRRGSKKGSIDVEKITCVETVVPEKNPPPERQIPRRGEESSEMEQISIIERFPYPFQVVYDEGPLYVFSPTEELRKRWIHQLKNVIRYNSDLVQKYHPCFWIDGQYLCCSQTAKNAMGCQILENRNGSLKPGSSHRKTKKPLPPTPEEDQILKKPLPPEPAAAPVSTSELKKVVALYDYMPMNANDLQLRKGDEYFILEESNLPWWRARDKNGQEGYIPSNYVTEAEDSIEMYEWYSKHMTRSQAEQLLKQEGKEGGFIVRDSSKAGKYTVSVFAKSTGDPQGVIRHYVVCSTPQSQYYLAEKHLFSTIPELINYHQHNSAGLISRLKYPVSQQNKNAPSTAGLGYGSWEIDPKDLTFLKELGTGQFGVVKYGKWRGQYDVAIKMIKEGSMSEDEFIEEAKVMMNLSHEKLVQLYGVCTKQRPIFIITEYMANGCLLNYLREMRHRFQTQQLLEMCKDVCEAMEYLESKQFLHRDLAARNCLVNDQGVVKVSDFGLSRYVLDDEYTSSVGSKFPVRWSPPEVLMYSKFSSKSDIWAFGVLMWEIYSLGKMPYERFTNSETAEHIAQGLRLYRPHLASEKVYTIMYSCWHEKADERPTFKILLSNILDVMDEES
compound,measurement,setting,value
"C=CC(=O)NN1CCCC(n2nc(-c3ccc(Oc4ccccc4)cc3)c3c(N)ncnc32)C1 (stereo not shown) [Embodiment 6, N-(3-(4-amino-3-(4-phenoxyphenyl)-1H-pyrazolo[3,4-D]pyrimidine-1-yl)-1-piperidyl)-acrylamide]",IC50,SU-DHL-6,> 10000 nM
same,IC50,Btk,0.27 nM
same,AUC(0-t),"[1]; IV, 2 mg/kg",888 ng·h/mL
same,Cmax,"[1]; IV, 2 mg/kg",1230 ng/mL
same,Tmax,"[1]; IV, 2 mg/kg",4.98 min
same,half-life,"[1]; IV, 2 mg/kg",48 min
same,AUC(0-t),"[1]; PO, 30 mg/kg",7420 ng·h/mL
same,Cmax,"[1]; PO, 30 mg/kg",3830 ng/mL
same,Tmax,"[1]; PO, 30 mg/kg",49.8 min
same,half-life,"[1]; PO, 30 mg/kg",45 min
same,bioavailability,"[1]; dog, oral, 30 mg/kg",54.6%
same,IC50,SU-DHL-4,75 nM
same,T cell activity inhibition effect,T cells,T cell activity inhibition effect
same,IC50,OCI-LY19,6790 nM
same,IC50,DB,> 10000 nM
same,IC50,Raji,> 10000 nM
same,IC50,TMD8,0.85 nM
same,IC50,DOHH-2,< 3 nM
same,IC50,OCI-LY10,6 nM
same,AUC(0-t),"[2]; IV, 2 mg/kg",271 ng·h/mL
same,Cmax,"[2]; IV, 2 mg/kg",658 ng/mL
same,Tmax,"[2]; IV, 2 mg/kg",4.98 min
same,half-life,"[2]; IV, 2 mg/kg",10.8 min
same,AUC(0-t),"[2]; PO, 10 mg/kg",449 ng·h/mL
same,Cmax,"[2]; PO, 10 mg/kg",447 ng/mL
same,Tmax,"[2]; PO, 10 mg/kg",25.2 min
same,half-life,"[2]; PO, 10 mg/kg",113 min
same,bioavailability,"[2]; rat, oral, 10 mg/kg",32.2%
